We go through one molecule from paper PMC7701285, “A Strain-Specific Inhibitor of Receptor-Bound HIV-1 Targets a Pocket near the Fusion Peptide” (Cell Reports, 2020).

This test has as its target B41 SOSIP.664 pseudotype parent; B41 (9032_08_A1) HIV-1 Env on pseudotyped virus (Human immunodeficiency virus 1, UniProt B3UES2). The test is described as follows: TZM-bl pseudovirus neutralization, luciferase. In kind it is cell-based. Particulars: average, 1 h preincubation at 37°C, 1% DMSO, 48 h, entry read-out.

A word on the IC50: it is the concentration that gives 50% inhibition.

For `Cc1ccc(-c2ccc(NC(=O)N3CCC4(CCO4)CC3)cc2)cc1` [GO52], the IC50 amounted to 1600 nM.
